≈ marks a conversion by molar mass, not a printed value.
tested on: not listed separately; assay: Solubility in water; type: physicochemical

| SMILES | solubility |
| --- | --- |
| c1ccc(CN2CCC(Nc3ccc4[nH]ncc4c3)CC2)cc1 | 794 µg/mL (≈ 2590 µM) |
| O=C(NCc1c(F)cccc1F)Nc1ccc2[nH]ncc2c1 | 5 µg/mL (≈ 16.5 µM) |

tested on: not listed separately; assay: Solubility in 0.086N HCl containing 34 mM NaCl; type: physicochemical

| SMILES | solubility |
| --- | --- |
| c1ccc(CN2CCC(Nc3ccc4[nH]ncc4c3)CC2)cc1 | 881 µg/mL (≈ 2880 µM) |
| O=C(NCc1c(F)cccc1F)Nc1ccc2[nH]ncc2c1 | 5 µg/mL (≈ 16.5 µM) |

tested on: not listed separately; assay: Solubility in 50 mM KH2PO4 containing 24 mM NaOH; type: physicochemical

| SMILES | solubility |
| --- | --- |
| c1ccc(CN2CCC(Nc3ccc4[nH]ncc4c3)CC2)cc1 | 495 µg/mL (≈ 1620 µM) |
| O=C(NCc1c(F)cccc1F)Nc1ccc2[nH]ncc2c1 | < 1 µg/mL |

biological target: Rho-associated protein kinase (Homo sapiens, UniProt O75116+Q13464)

| IC50 | SMILES |
| --- | --- |
| 780 nM | CCCN1CCCC(Nc2ccc3[nH]ncc3c2)C1 (stereo not drawn) |
| 520 nM | c1ccc(CN[C@H]2CC[C@H](Nc3ccc4[nH]ncc4c3)CC2)cc1 |
| 7900 nM | CN(CCNc1ccc2[nH]ncc2c1)Cc1ccccc1 |
| > 10000 nM | Fc1ccc(CN2CCC(CNc3ccc4[nH]ncc4c3)CC2)cc1 |
| > 10000 nM | Cn1ncc2cc(NC3CCCN(Cc4ccccc4)C3)ccc21 (stereo not drawn) |
| > 1000 nM | c1cc(CN2CCCC(Nc3ccc4[nH]ncc4c3)C2)c[nH]1 (stereo not drawn) |
| 25 nM | Fc1ccc(CN2CCCC(Nc3ccc4[nH]ncc4c3)C2)cc1 (stereo not drawn) |
| 10 nM | Fc1ccc(CN2CCCC(Nc3ccc4[nH]ncc4c3)C2)cc1F (stereo not drawn) |
| 10 nM | Nc1ccc(CN2CCCC(Nc3ccc4[nH]ncc4c3)C2)cc1 (stereo not drawn) |
| 440 nM | Clc1ccccc1CN1CCC(Nc2ccc3[nH]ncc3c2)CC1 |
| 290 nM | Clc1cccc(CN2CCC(Nc3ccc4[nH]ncc4c3)CC2)c1 |
| 20 nM | c1ccc(CN2CCCC(Nc3ccc4[nH]ncc4c3)C2)cc1 (stereo not drawn) |
| 220 nM | O=C(NCc1ccc(Cl)cc1Cl)Nc1ccc2[nH]ncc2c1 |
| 290 nM | Clc1ccc(CN2CCC(Nc3ccc4[nH]ncc4c3)CC2)cc1 |
| > 10000 nM | O=C(Nc1ccc2[nH]ncc2c1)NC1CCN(Cc2ccccc2)CC1 |
| 260 nM | O=C(NCc1ccccc1)Nc1ccc2[nH]ncc2c1 |
| 85 nM | O=C(NCc1c(F)cccc1F)Nc1ccc2[nH]ncc2c1 |
| 16 nM | COc1ccc(CN2CCCC(Nc3ccc4[nH]ncc4c3)C2)cc1 (stereo not drawn) |
| 150 nM | Cc1n[nH]c2ccc(NC3CCCN(Cc4ccccc4)C3)cc12 (stereo not drawn) |
| 32 nM | c1ccc(CN2CCC(Nc3ccc4[nH]ncc4c3)C2)cc1 (stereo not drawn) |
| 9 nM | Cc1ccc(CN2CCCC(Nc3ccc4[nH]ncc4c3)C2)cc1 (stereo not drawn) |
| 45 nM | Clc1ccccc1CN1CCC(Nc2ccc3[nH]ncc3c2)C1 (stereo not drawn) |
| 19 nM | Clc1cccc(CN2CCCC(Nc3ccc4[nH]ncc4c3)C2)c1 (stereo not drawn) |
| 80 nM | COc1cc(CN2CCCC(Nc3ccc4[nH]ncc4c3)C2)cc(OC)c1 (stereo not drawn) |
| 87 nM | O=[N+]([O-])c1ccc(CN2CCCC(Nc3ccc4[nH]ncc4c3)C2)cc1 (stereo not drawn) |
| 320 nM | c1ccc(CN[C@H]2CC[C@@H](Nc3ccc4[nH]ncc4c3)CC2)cc1 |
| 35 nM | Nc1cccc(CN2CCCC(Nc3ccc4[nH]ncc4c3)C2)c1 (stereo not drawn) |
| 13 nM | Clc1ccccc1CN1CCCC(Nc2ccc3[nH]ncc3c2)C1 (stereo not drawn) |
| 11 nM | Clc1ccc(CN2CCCC(Nc3ccc4[nH]ncc4c3)C2)cc1 (stereo not drawn) |
| 85 nM | Nc1ccccc1CN1CCCC(Nc2ccc3[nH]ncc3c2)C1 (stereo not drawn) |

| SMILES | IC50 |
| --- | --- |
| O=C(NC1CCN(Cc2ccccc2)CC1)c1ccc2[nH]ncc2c1 | 540 nM |
| c1c[nH]c(CN2CCCC(Nc3ccc4[nH]ncc4c3)C2)c1 (stereo not drawn) | 11 nM |
| c1ccc(CN2CCCC(Nc3ccc4[nH]ncc4c3)C2)nc1 (stereo not drawn) | 240 nM |
| c1cncc(CN2CCCC(Nc3ccc4[nH]ncc4c3)C2)c1 (stereo not drawn) | 72 nM |
| c1coc(CN2CCCC(Nc3ccc4[nH]ncc4c3)C2)c1 (stereo not drawn) | 65 nM |
| c1cc(CN2CCCC(Nc3ccc4[nH]ncc4c3)C2)co1 (stereo not drawn) | 180 nM |
| O=C(NCc1c(Cl)cccc1Cl)Nc1ccc2[nH]ncc2c1 | 20 nM |
| c1ccc(CN2CCC(Oc3ccc4[nH]ncc4c3)CC2)cc1 | 100 nM |
| c1ccc(CN2CCCC(Oc3ccc4[nH]ncc4c3)C2)cc1 (stereo not drawn) | 10 nM |
| O=C(Nc1ccc2[nH]ncc2c1)C1CCCN(Cc2ccccc2)C1 (stereo not drawn) | 18 nM |
| O=C(Nc1ccc2[nH]ncc2c1)C1CCN(Cc2ccccc2)CC1 | 136 nM |
| CC(C)CCN1CCCC(Nc2ccc3[nH]ncc3c2)C1 (stereo not drawn) | 340 nM |
